Measured values: patent US10669268B2, “Bicyclic derivatives” (Hoffmann-La Roche Inc., priority 2012, dated 2020)

Biological target: ATX (human His-tagged) (Homo sapiens (Human), UniProt Q13822)
Experiment: Human ATX enzyme inhibition assay (fluorescence quenching, MR121 substrate)
Type: biochemical
Conditions: 30 nM ATX, 1 μM MR121 substrate, 30° C., pH 8.0
Summary of the method: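 Fluorescence-quenching assay using MR121 substrate at 1 μM final, incubated 15 min at 30 °C. Buffer was 50 mM Tris-HCl pH 8.0 with 140 mM NaCl, 5 mM KCl, 1 mM CaCl2, 1 mM MgCl2 and 0.01% Triton X-100.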

Row | SMILES | IC50 [nM]
1 | O=C(OCc1ccc(OC(F)(F)C(F)F)cc1)N1C[C@@H]2CN(C(=O)c3ccc4[nH]nnc4c3)C[C@H]2C1 [Example 4.38, (3aS,6aS)-5-(1H-benzotriazole-5-carbonyl)-hexahydro-pyrrolo[3,4-c]pyrrole-2-carboxylic acid 4-(1,1,2,2-tetrafluoro-ethoxy)-benzyl ester] | 24
2 | O=C(OCc1ccc(OC(F)F)c(F)c1)N1C[C@@H]2CN(C(=O)c3ccc4[nH]nnc4c3)C[C@H]2C1 [Example 4.39, (3aS,6aS)-5-(1H-benzotriazole-5-carbonyl)-hexahydro-pyrrolo[3,4-c]pyrrole-2-carboxylic acid 4-difluoromethoxy-3-fluoro-benzyl ester] | 6
3 | O=C(OCc1ccc(OC(F)(F)F)c(F)c1)N1C[C@@H]2CN(C(=O)c3ccc4[nH]nnc4n3)C[C@H]2C1 [Example 4.40, (3aS,6aS)-5-(1H-[1,2,3]triazolo[4,5-b]pyridine-5-carbonyl)-hexahydro-pyrrolo[3,4-c]pyrrole-2-carboxylic acid 3-fluoro-4-trifluoromethoxy-benzyl ester] | 16
4 | O=C(OCc1ccc(OC(F)F)cc1)N1C[C@@H]2CN(C(=O)c3ccc4[nH]nnc4c3)C[C@H]2C1 [Example 4.41, (3aS,6aS)-5-(1H-benzotriazole-5-carbonyl)-hexahydro-pyrrolo[3,4-c]pyrrole-2-carboxylic acid 4-difluoromethoxy-benzyl ester] | 9
5 | O=C(OCc1ccc(OC(F)(F)F)cc1)N1C[C@@H]2CN(C(=O)c3ccc4[nH]nnc4n3)C[C@H]2C1 [Example 4.42, (3aS,6aS)-5-(1H-[1,2,3]triazolo[4,5-b]pyridine-5-carbonyl)-hexahydro-pyrrolo[3,4-c]pyrrole-2-carboxylic acid 4-trifluoromethoxy-benzyl ester] | 24
6 | O=C(OCc1ccc(OC(F)(F)F)c(F)c1)N1C[C@@H]2CN(C(=O)c3ccc4[nH]nnc4c3)C[C@H]2C1 [Example 4.43, (3aS,6aS)-5-(1H-benzotriazole-5-carbonyl)-hexahydro-pyrrolo[3,4-c]pyrrole-2-carboxylic acid 3-fluoro-4-trifluoromethoxy-benzyl ester] | 4
7 | O=C(OCc1ccc(OCC(F)(F)F)cc1)N1C[C@@H]2CN(C(=O)c3ccc4[nH]nnc4c3)C[C@H]2C1 [Example 4.44, (3aS,6aS)-5-(1H-benzotriazole-5-carbonyl)-hexahydro-pyrrolo[3,4-c]pyrrole-2-carboxylic acid 4-(2,2,2-trifluoro-ethoxy)-benzyl ester] | 6
8 | O=C(OCc1ccc(OC(F)(F)F)cn1)N1C[C@@H]2CN(C(=O)c3ccc4[nH]nnc4c3)C[C@H]2C1 [Example 4.45, (3aS,6aS)-5-(1H-benzotriazole-5-carbonyl)-hexahydro-pyrrolo[3,4-c]pyrrole-2-carboxylic acid 5-trifluoromethoxy-pyridin-2-ylmethyl ester] | 7
9 | CC(C)c1cc(C#N)ccc1COC(=O)N1C[C@@H]2CN(C(=O)[C@@H]3CCc4[nH]nnc4C3)C[C@H]2C1 [Example 4.46, (3aS,6aS)-5-((R)-4,5,6,7-tetrahydro-1H-benzotriazole-5-carbonyl)-hexahydro-pyrrolo[3,4-c]pyrrole-2-carboxylic acid 4-cyano-2-isopropyl-benzyl ester] | 5
10 | Cc1cc(COC(=O)N2C[C@@H]3CN(C(=O)[C@@H]4CCc5[nH]nnc5C4)C[C@H]3C2)c(C(C)C)cc1C#N [Example 4.47, (3aS,6aS)-5-((R)-4,5,6,7-tetrahydro-1H-benzotriazole-5-carbonyl)-hexahydro-pyrrolo[3,4-c]pyrrole-2-carboxylic acid 4-cyano-2-isopropyl-5-methyl-benzyl ester] | 4
11 | O=C(OCc1ccc(OC(F)(F)F)cc1F)N1C[C@@H]2CN(C(=O)[C@@H]3CCc4[nH]nnc4C3)C[C@H]2C1 [Example 4.48, (3aS,6aS)-5-((R)-4,5,6,7-tetrahydro-1H-benzotriazole-5-carbonyl)-hexahydro-pyrrolo[3,4-c]pyrrole-2-carboxylic acid 2-fluoro-4-trifluoromethoxy-benzyl ester] | 3
12 | O=C(OCc1ccc(OC(F)(F)F)cc1F)N1C[C@@H]2CN(C(=O)c3ccc4[nH]nnc4c3)C[C@H]2C1 [Example 4.49, (3aS,6aS)-5-(1H-benzotriazole-5-carbonyl)-hexahydro-pyrrolo[3,4-c]pyrrole-2-carboxylic acid 2-fluoro-4-trifluoromethoxy-benzyl ester] | 3
13 | CC(C)c1cc(C#N)ccc1COC(=O)N1C[C@@H]2CN(C(=O)c3ccc4[nH]nnc4c3)C[C@H]2C1 [Example 4.52, (3aS,6aS)-5-(1H-benzotriazole-5-carbonyl)-hexahydro-pyrrolo[3,4-c]pyrrole-2-carboxylic acid 4-cyano-2-isopropyl-benzyl ester] | 10
14 | Cc1cc(COC(=O)N2C[C@@H]3CN(C(=O)c4ccc5[nH]nnc5c4)C[C@H]3C2)c(C(C)C)cc1C#N [Example 4.53, (3aS,6aS)-5-(1H-benzotriazole-5-carbonyl)-hexahydro-pyrrolo[3,4-c]pyrrole-2-carboxylic acid 4-cyano-2-isopropyl-5-methyl-benzyl ester] | 5
15 | O=C(OCc1ccc(OC(F)(F)F)cc1)N1C[C@@H]2CN(C(=O)N3CCc4[nH]nnc4C3)C[C@H]2C1 [Example 4.54, (3aS,6aS)-5-(1,4,6,7-tetrahydro-[1,2,3]triazolo[4,5-c]pyridine-5-carbonyl)-hexahydro-pyrrolo[3,4-c]pyrrole-2-carboxylic acid 4-trifluoromethoxy-benzyl ester] | 14
16 | O=C(OCc1ccc(C(F)(F)F)cc1F)N1C[C@@H]2CN(C(=O)c3ccc4[nH]nnc4c3)C[C@H]2C1 [Example 4.56, (3aS,6aS)-5-(1H-benzotriazole-5-carbonyl)-hexahydro-pyrrolo[3,4-c]pyrrole-2-carboxylic acid 2-fluoro-4-trifluoromethyl-benzyl ester] | 9
17 | O=C(OCc1ccc(C(F)(F)F)cc1)N1C[C@@H]2CN(C(=O)c3ccc4[nH]nnc4c3)C[C@H]2C1 [Example 4.57, (3aS,6aS)-5-(1H-benzotriazole-5-carbonyl)-hexahydro-pyrrolo[3,4-c]pyrrole-2-carboxylic acid 4-trifluoromethyl-benzyl ester] | 11
18 | O=C(OCc1ccc(OC(F)(F)F)cc1)N1C[C@@H]2CN(C(=O)[C@@H]3CCc4[nH]nnc4C3)C[C@H]2C1 [Example 4.58, (3aS,6aS)-5-((R)-4,5,6,7-tetrahydro-1H-benzotriazole-5-carbonyl)-hexahydro-pyrrolo[3,4-c]pyrrole-2-carboxylic acid 4-trifluoromethoxy-benzyl ester] | 5.2
19 | O=C(OCc1ccc(C(F)(F)F)cc1)N1C[C@@H]2CN(C(=O)[C@@H]3CCc4[nH]nnc4C3)C[C@H]2C1 [Example 4.59, (3aS,6aS)-5-((R)-4,5,6,7-tetrahydro-1H-benzotriazole-5-carbonyl)-hexahydro-pyrrolo[3,4-c]pyrrole-2-carboxylic acid 4-trifluoromethyl-benzyl ester] | 9
20 | CS(=O)(=O)c1cc(Cl)cc(COC(=O)N2C[C@@H]3CN(C(=O)[C@@H]4CCc5[nH]nnc5C4)C[C@H]3C2)c1 [Example 4.60, (3aS,6aS)-5-((R)-4,5,6,7-tetrahydro-1H-benzotriazole-5-carbonyl)-hexahydro-pyrrolo[3,4-c]pyrrole-2-carboxylic acid 3-chloro-5-methanesulfonyl-benzyl ester] | 5
21 | N#Cc1ccc(COC(=O)N2C[C@@H]3CN(C(=O)c4ccc5[nH]nnc5c4)C[C@H]3C2)c(OC2CCC2)c1 [Example 4.64, (3aS,6aS)-5-(1H-benzotriazole-5-carbonyl)-hexahydro-pyrrolo[3,4-c]pyrrole-2-carboxylic acid 4-cyano-2-cyclobutoxy-benzyl ester] | 19
22 | CC(C)Oc1cc(C#N)ccc1COC(=O)N1C[C@@H]2CN(C(=O)c3ccc4[nH]nnc4c3)C[C@H]2C1 [Example 4.65, (3aS,6aS)-5-(1H-benzotriazole-5-carbonyl)-hexahydro-pyrrolo[3,4-c]pyrrole-2-carboxylic acid 4-cyano-2-isopropoxy-benzyl ester] | 14
23 | N#Cc1ccc(COC(=O)N2C[C@@H]3CN(C(=O)c4ccc5[nH]nnc5c4)C[C@H]3C2)c(OCC(F)(F)F)c1 [Example 4.66, (3aS,6aS)-5-(1H-benzotriazole-5-carbonyl)-hexahydro-pyrrolo[3,4-c]pyrrole-2-carboxylic acid 4-cyano-2-(2,2,2-trifluoro-ethoxy)-benzyl ester] | 40
24 | CCOc1cc(Cl)c(F)cc1COC(=O)N1C[C@@H]2CN(C(=O)c3ccc4[nH]nnc4c3)C[C@H]2C1 [Example 4.67, (3aS,6aS)-5-(1H-benzotriazole-5-carbonyl)-hexahydro-pyrrolo[3,4-c]pyrrole-2-carboxylic acid 4-chloro-2-ethoxy-5-fluoro-benzyl ester] | 8
25 | O=C(OCc1cc(Cl)cc(Cl)c1)N1C[C@H]2C[C@@H](Nc3ccc4[nH]c(=O)oc4c3)C[C@H]2C1 [Example 5, (3aR,5r,6aS)-3,5-Dichlorobenzyl 5-(2-oxo-2,3-dihydrobenzo[d]oxazol-6-ylamino)hexahydrocyclopenta[c]pyrrole-2(1H)-carboxylate] | 248
26 | O=C(OCc1cc(Cl)cc(Cl)c1)N1C[C@H]2CN(Cc3ccc4[nH]cnc4c3)C[C@H]2C1 [Example 6, (3aR,6aS)-3,5-Dichlorobenzyl 5-((1H-benzo[d]imidazol-5-yl)methyl)hexahydropyrrolo[3,4-c]pyrrole-2(1H)-carboxylate] | 10400
27 | O=C(OCc1cc(Cl)cc(Cl)c1)N1C[C@H]2CN(Cc3ccc4[nH]ncc4c3)C[C@H]2C1 [Example 6.02] | 2810
28 | O=C(OCc1cc(Cl)cc(Cl)c1)N1C[C@H]2CN(Cc3ccc4[nH]c(=O)oc4c3)C[C@H]2C1 [Example 6.03] | 531
